Test results: patent US20210386367A1, “DEVICES AND SYSTEMS FOR GASTROINTESTINAL MICROBIOME DETECTION AND MANIPULATION” (Progenity, Inc., priority 2018, published 2021)
≈ marks a conversion by molar mass, not a printed value. Like-named read-outs stand apart in the source and are kept apart here.

Key:
Type in all cases: cell-based
Streptococcus spp. = experiment: Spontaneous mutation frequency assay; conditions: selection at 4× and 8× MIC
Experimental: Initial values of the MIC were determined by agar dilution in accordance with guidelines from the Clinical and Laboratory Standards Institute (CLSI; (1) “Methods for Dilution Antimicrobial Susceptibility Tests for Bacteria That Grow Aerobically; Approved Standard; 11th ed.,” CLSI standard M07, 2018; (2) “Methods for Antimicrobial Susceptibility Testing of Anaerobic Bacteria; Approved Standard—Eighth Edition,” CLSI document M11-A8, 2012.).
The agar plates were prepared by mixing a ratio of 1.0 mL of concentrated drug to 49.0 mL of the appropriate molten (47° C.) agar; the drug-supplemented agar was mixed, poured into 15-by-150 mm petri dishes and allowed to solidify and dry at room temperature prior to inoculation. […] Each plate was allowed to cool at room temperature for at least 1 hr.
The isolates were streaked onto the appropriate agar medium and incubated for 20 hr (aerobes) or 48 hr (Bacteroides under anaerobic conditions). Using a sterile swab, several well-isolated colonies were removed and resuspended in sterile saline at a heavy cell density. Each plate was inoculated with 0.5 mL of the cell suspension (each test concentration was inoculated in duplicate). The target inoculum for each spontaneous mutation plate was 10^9-10 CFU. In addition, a portion of the inoculum from each isolate was enumerated by making dilutions, spreading on agar and counting colonies.
Once the inoculum was absorbed into the agar, the plates were incubated at 35° C. Aerobes were examined at 24 and 48 hr, and resulting colonies were counted. Bacteroides were incubated anaerobically for 48-72 hr in the anaerobe chamber and colonies were counted.
Colony counts from plates used to enumerate the initial inoculum density and from the resulting spontaneous mutation frequency test plates were determined. The inoculum size was calculated as CFU inoculated per plate. The spontaneous mutation frequency was calculated using the counts from duplicate spontaneous mutation assay test plates as follows:
If there were no colonies on the antibiotic selection plates, the spontaneous mutation frequency was reported as less than the frequency observed with one colony to indicate that the spontaneous mutation frequency was less than the limit of detection (one CFU). […] The mutation prevention concentration (MPC) was reported as the lowest concentration for which no mutants were selected.

Escherichia coli = experiment: Broth microdilution MIC, 50 clinical isolates (incl. ESBL, one NDM-1)
Experimental: Minimal inhibitory concentration (MIC) values were determined by broth microdilution or agar dilution in accordance with guidelines from the Clinical and Laboratory Standards Institute (CLSI; (1) “Methods for Dilution Antimicrobial Susceptibility Tests for Bacteria That Grow Aerobically; Approved Standard; 11th ed.” CLSI standard M07-A11, 2018; (2) “Performance Standards for Antimicrobial Susceptibility Testing; Twenty-Eighth Informational Supplement,” CLSI document M100-S28, 2018; and (3) “Methods for Antimicrobial Susceptibility Testing of Anaerobic Bacteria; Approved Standard—Eighth Edition,” CLSI document M11-A8, 2012).
Tested aerobically by broth microdilution: • Escherichia coli, n=50 • Klebsiella spp., n=50 • Pseudomonas aeruginosa, n=50 • Streptococcus spp., n=50 • Staphylococcus aureus, n=50 • Enterococcus faecalis, n=50 • Enterobacter aerogenes, n=50 • Proteus mirabilis, n=50
Broth microdilution testing of aerobic bacteria was conducted in cation-adjusted Mueller Hinton broth (MHBII). For testing streptococci, lysed horse blood (LHB) was added to MHBII broth at a final concentration of 3%. Where LHB was used, it was added after filtering.
Broth microdilution susceptibility testing in 96-well microplates was conducted in accordance with CLSI methods (1) and (2). Automated liquid handlers were used to conduct serial dilutions and liquid transfers, including the Multidrop 384 (Labsystems, Helsinki, Finland), Biomek 2000, and the Biomek FX (Beckman Coulter, Fullerton, Calif.). All wells in columns 2 through 12 of a standard 96-well microdilution plate (Costar 3795) were filled with 150 μL of the appropriate diluent. Then, 300 μL of the test agents were added to the wells of column 1 of the plates at 100× the highest final concentration to be tested. Serial two-fold dilutions were made across the rows through column 11 using the Biomek 2000. The wells of column 12 contained no drug and served as the growth control wells. This plate served as the “mother plate” from which MIC assay plates or “daughter plates” were made.
The daughter plates were loaded with 190 μL per well of the appropriate medium using the Multidrop 384. The daughter plates were created using the Biomek FX which transferred 2 μL of drug solution from each well of a mother plate to each corresponding well of the daughter plate in a single step. A standardized inoculum of each test organism was prepared per CLSI methods (1) to equal a 0.5 McFarland standard, followed by a dilution of 1:20 for aerobes and 1:10 for anaerobes. The plates were then inoculated with 10 μL of the diluted inoculum using the Biomek 2000 from low to high drug concentration, resulting in a final concentration of approximately 5×10^5 CFU/mL per well. An un-inoculated plate was incubated in parallel for each medium for the purpose of assessing solubility of the drug in the test media.
Inoculated plates were stacked 3 or 4 high, covered with a sterile lid on the top plate, placed into boxes with CO2 planchets (streptococci) or plastic bags (all other isolates). Plates were incubated at 35° C. for 16-24 hr in ambient air for aerobes or for 42-48 hr in the anaerobic environment of the Bactron II anaerobe chamber (Sheldon Manufacturing Co.; Cornelius, Oreg.). Following incubation, the microplates were removed from the incubator and viewed from the bottom using a plate viewer. The MIC values were read and recorded as the lowest concentration of drug that inhibited visible growth of the organism as per CLSI methods (1) and (2).

Veillonella spp. = experiment: Agar dilution MIC, 30 clinical isolates
[1] = 30 Veillonella spp. clinical isolates

Q: How did the Spontaneous Mutation Frequency (Streptococcus spp.) turn out when `CO/N=C(\C(=O)N[C@@H]1C(=O)N2C(C(=O)O)=C(CSc3nc(=O)c(=O)[nH]n3C)CS[C@H]12)c1csc(N)n1` [ceftriaxone] was run?
A: Its Spontaneous Mutation Frequency is ≤ 9.52×10^−10.

Q: What about the “% R” value (Escherichia coli) of the same molecule?
A: The value was “Thirty-six”.

Q: What about the “% S” value (Escherichia coli) of the same molecule?
A: Its value is 64%.

Q: What about the Mode (Escherichia coli) of the same molecule?
A: Its Mode is 0.03 µg/mL.

Q: And the “Cumulative percentage of isolates inhibited at MIC” value (Escherichia coli; 0.008 μg/mL)?
A: The value was 2.0%.

Q: What about the “Number of test isolates at MIC” value (Escherichia coli; 0.008 μg/mL) of the same molecule?
A: Its value is 1.

Q: And the “Cumulative percentage of isolates inhibited at MIC” value (Escherichia coli; 0.015 μg/mL)?
A: The value was 1.0%.

Q: And the “Number of test isolates at MIC” value (Escherichia coli; 0.015 μg/mL)?
A: Its value is 1.

Q: And the “Cumulative percentage of isolates inhibited at MIC” value (Escherichia coli; 0.03 μg/mL)?
A: The value was 42.0%.

Q: And the “Number of test isolates at MIC” value (Escherichia coli; 0.03 μg/mL)?
A: Its value is 19.

Q: What about the “Cumulative percentage of isolates inhibited at MIC” value (Escherichia coli; 0.06 μg/mL) of the same molecule?
A: The value was 58.0%.

Q: What about the “Number of test isolates at MIC” value (Escherichia coli; 0.06 μg/mL) of the same molecule?
A: The value was 8.

Q: And the “Cumulative percentage of isolates inhibited at MIC” value (Escherichia coli; 8 μg/mL)?
A: The value was 68.0%.

Q: What about the “Number of test isolates at MIC” value (Escherichia coli; 8 μg/mL) of the same molecule?
A: The value was 2.

Q: What about the “Cumulative percentage of isolates inhibited at MIC” value (Escherichia coli; 16 μg/mL) of the same molecule?
A: The value was 72.0%.

Q: And the “Number of test isolates at MIC” value (Escherichia coli; 16 μg/mL)?
A: The value was 2.

Q: What about the “Cumulative percentage of isolates inhibited at MIC” value (Escherichia coli; 64 μg/mL) of the same molecule?
A: The value was 76.0%.

Q: What about the “Number of test isolates at MIC” value (Escherichia coli; 64 μg/mL) of the same molecule?
A: The value was 2.

Q: What about the “Cumulative percentage of isolates inhibited at MIC” value (Escherichia coli; >128 μg/mL) of the same molecule?
A: The value was 100.0%.

Q: What about the “Number of test isolates at MIC” value (Escherichia coli; >128 μg/mL) of the same molecule?
A: Its value is 12.

Q: What about the MIC90 (Escherichia coli; Escherichia coli) of the same molecule?
A: The MIC90 was greater than 128 µg/mL.

Q: What about the MIC50 (Escherichia coli; Escherichia coli, read-out: MIC50) of the same molecule?
A: Its MIC50 is 0.06 µg/mL (≈ 0.108 µM).

Q: And the “Cumulative percentage of isolates inhibited at MIC” value (Escherichia coli; […])?
A: Its value is 64.0%.

Q: And the “Number of test isolates at MIC” value (Escherichia coli; […])?
A: Its value is 3.

Q: What about the “% R” value (Escherichia coli; listed as CTR) of the same molecule?
A: Its value is 36%.

Q: What about the MIC90 (Escherichia coli; listed as CTR) of the same molecule?
A: Its MIC90 is greater than 128 µg/mL.

Q: What about the isolates resistant (Veillonella spp.) of the same molecule?
A: The isolates resistant was 3%.

Q: And the “isolates with intermediate resistance” value (Veillonella spp.)?
A: Its value is 10%.

Q: And the “% I” value (Veillonella spp.; [1])?
A: The value was 10%.

Q: What about the “% R” value (Veillonella spp.; [1]) of the same molecule?
A: Its value is 3%.

Q: And the “% S” value (Veillonella spp.; [1])?
A: Its value is 87%.

Q: And the MIC50 (Veillonella spp.; [1])?
A: Its MIC50 is 16 µg/mL (≈ 28.9 µM).

Q: What about the MIC90 (Veillonella spp.; [1]) of the same molecule?
A: The MIC90 was 32 µg/mL (≈ 57.7 µM).

Q: And the MIC50 (Veillonella spp.; Veillonella, read-out: MIC50)?
A: The MIC50 was 16 µg/mL (≈ 28.9 µM).

Q: And the MIC90 (Veillonella spp.; Veillonella, read-out: MIC90)?
A: The MIC90 was 32 µg/mL (≈ 57.7 µM).

Q: And the Mode (Veillonella spp.; modal MIC, 30 Veillonella spp. clinical isolates)?
A: Its Mode is 16 µg/mL.
